Test results published in patent US20250100987A1 (priority 2021, published 2025).
Read-outs that look alike come from different tables or passages of the source.

Columns and labels:
Assay in all cases: cell-based
[1] = biological target: T1, Kappa opioid receptor (KOR) (Homo sapiens, UniProt P41145)
[2] = biological target: T1, Kappa opioid receptor (KOR); remark: listed apart in the source
[3] = biological target: T1, Kappa opioid receptor (KOR); remark: listed apart in the source

T1 sequence (P41145 whole entry): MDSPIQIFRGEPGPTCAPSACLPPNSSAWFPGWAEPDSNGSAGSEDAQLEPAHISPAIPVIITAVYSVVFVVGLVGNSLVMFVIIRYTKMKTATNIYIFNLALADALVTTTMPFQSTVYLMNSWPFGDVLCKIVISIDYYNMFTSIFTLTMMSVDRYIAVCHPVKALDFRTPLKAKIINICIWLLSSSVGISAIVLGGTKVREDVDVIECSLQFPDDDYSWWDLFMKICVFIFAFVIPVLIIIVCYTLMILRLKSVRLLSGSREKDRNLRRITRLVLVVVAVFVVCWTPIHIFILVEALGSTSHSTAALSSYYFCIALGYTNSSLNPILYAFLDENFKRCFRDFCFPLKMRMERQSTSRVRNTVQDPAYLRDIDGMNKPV

Molecule	EC50 ([2]; EC50 Potency Score)	EC50 ([3]; EC50 Potency Score)	other results
COC(=O)[C@@H]1C[C@H](OC(C)=O)C(=O)[C@@H]2[C@@]3(C)C[C@@H](c4ccoc4)CC(=O)[C@@H]3CC[C@]21C (racemic) [ALB-230937, O6C-20-nor-SalA racemic mixture]	< 1 nM	< 1 nM	EC50 [1]: < 0.1 nM; inhibition at 0.0001 µM ([1]; read-out: inhibition of cAMP production): 100%
COC(=O)[C@@H]1C[C@@H](OC(C)=O)C(=O)[C@@H]2[C@@]3(C)C[C@@H](c4ccoc4)CC(=O)[C@@H]3CC[C@]21C [ALB-230935, 2-cpi-O6C-20-nor-SalA]	1 to 100 nM	1 to 100 nM	
COCO[C@H]1C[C@@H](C(=O)OC)[C@]2(C)CC[C@H]3C(=O)C[C@H](c4ccoc4)C[C@@H]3[C@H]2C1=O [ALB-231273]	< 1 nM	< 1 nM	EC50 ([2]; estimated EC50): < 0.1 nM; EC50 ([3]; estimated EC50): < 0.1 nM
COC(=O)[C@@H]1C[C@H](O)C(=O)[C@@H]2[C@H]3C[C@@H](c4ccoc4)CC(=O)[C@@H]3CC[C@]21C [ALB-231274, O6C-20-nor-SalB]	100 to 1000 nM	1000 to 10000 nM	
COC(=O)[C@@H]1C[C@H](OC(=O)/C=C/c2ccccc2)C(=O)[C@@H]2[C@H]3C[C@@H](c4ccoc4)CC(=O)[C@@H]3CC[C@]21C [ALB-231360]	1000 to 10000 nM	1000 to 10000 nM	EC50 [1]: ~46000 nM
O6C-20-nor-SalA Enantiomer A [ALB-230936]			EC50 ([2]; read-out: EC50 Potency Score): < 1 nM; EC50 ([3]; read-out: EC50 Potency Score): < 1 nM
O6C-20-nor-SalA Enantiomer B [ALB-230932]			EC50 ([2]; read-out: EC50 Potency Score): 1 to 100 nM; EC50 ([3]; read-out: EC50 Potency Score): 1 to 100 nM
